In patent US20250352608A1, “POLYPEPTIDES HAVING ANTI-INFLAMMATORY EFFECTS AND USES THEREOF” (OneSkin, Inc., priority 2020, published 2025):
Ends that are not written are not given here.

Tests used:
[1] = system: peripheral blood mononuclear cells (PBMCs); experiment: PBMC mRNA of IFN-γ and IL-10 (RT-qPCR); assay type: cell-based, human
Method: The effect of Peptide 14 on T cell activation was assessed by treating PBMCs stimulated with phytohaemagglutinin (PHA) with Peptide 14. PHA usually can trigger lymphocyte activation and cell division. PBMCs that were untreated with PHA or Peptide 14 served as negative control of lymphocyte activation. In the phytohaemagglutinin group, the PBMCs were activated with 5 μg/mL of PHA for 5 days. In the Peptide 14 and PHA group, the PBMCs were activated with 5 μg/mL of PHA and treated with 3.12 μM of Peptide 14 for 5 days. In the Peptide 14 group, the PBMCs were treated with 3.12 μM of Peptide 14 for 5 days. In the rapamycin group, the PBMCs were treated with 100 nM of rapamycin, a well-known immunosuppressive drug for 5 days. In the rapamycin+PHA group, the PBMCs were activated with 5 μg/mL of PHA and treated with 100 nM of rapamycin for 5 days. […] IFN-γ is typically produced in lymphocytes stimulated by PHA and may be used as marker of PBMC stimulation level. IL-10 is an anti-inflammatory cytokine. The cells from each of the experimental groups were processed for total RNA isolation, reverse transcription of the RNA and RT-qPCR. Data is represented as relative expression normalized to ubiquitous gene expression and untreated PBMC negative control.

[2] = system: Primary fibroblasts from Progeria patients; experiment: Senescence in Progeria fibroblasts (LKGIL, WLKGI); assay type: cell-based, human; conditions: 500 nM, 5 μM, 50 μM
[3] = system: human primary fibroblasts isolated from 3 healthy donors; experiment: Etoposide-induced senescence; assay type: cell-based; conditions: etoposide 20 μM
Method: Cellular senescence may be caused by several different stimuli. In order to assess whether Peptide 14 was effective against UVB-induced and chemically-induced senescence, human primary fibroblasts isolated from 3 healthy donors were used. These cells were cultured in DMEM (Dulbecco's Modified Eagle's Medium) supplemented with 10% v.v. fetal bovine serum (FBS), and 1% v.v. of penicillin/streptomycin solution (1,000 U mL-1). Cells were kept in a 5% CO2, 37° C. and 95% humidity atmosphere. After expansion, these cells were seeded in 96-well plates (4,000 cells per well) and, 6 hours after plating, were submitted to either etoposide (20 μM) treatment for 24 hours, or exposed twice to 0.05 J/cm^2 of UVB radiation. […] After incubation, relative cellular senescence (assessed by the activity of senescence associated β-galactosidase staining relative to untreated control) was analyzed and plotted in column graphs. ATRX foci were also assessed following ATRX immunofluorescence staining. Graphs were built using the average ATRX foci detected per nuclei. […] Data was analyzed using with either t-test or ANOVA followed by a Bonferroni post-hoc test. Statistical significance was determined as p-values equal or lower than 0.05 (FIG. 6).

HGPS HDFs = experiment: PP2A modulators and senescence markers; assay type: cell-based, human; conditions: 48 hs; for cellular senescence (SA-BGal+ cells): Okadaic Acid 5-7.5 nM or DT-061 7.5 μM
Method: Since PP2A has not been explored for cellular senescence modulation, whether the treatment of HGPS HDFs with a PP2A inhibitor (Okadaic acid—OA) and activator (DT-061) would result in the modulation of cellular senescence markers was assessed. HGPS HDFs were treated with 5-7.5 nM Okadaic Acid or 7.5 μM DT-061 for 48 hs. Some cells were treated with both 5 nM Okadaic Acid and 12.5 μM Peptide 14 for 48 hours. The senescence level was determined by SA β-galactosidase staining and normalized to total cell number.

[4] = system: ex vivo skin biopsies (donors); experiment: Topical application to ex vivo skin biopsies; assay type: cell-based, human; conditions: vs untreated
Excerpt: Senescent cell accumulation in the skin has been related to facial wrinkling and perceived age. A formulation having a concentration of Peptide 14 in the formulation was adjusted (0.01% w/v) to support the skin penetration of the Peptide 14 of up to 2% into the dermis was applied to ex vivo skin biopsies (from donors). A topical retinol application group was used as an “anti-aging” control, due to its widespread and decades-long use in the field, along with a no treatment control group.

[5] = system: Primary fibroblasts from Progeria patients; experiment: Senescence screen (SA B-galactosidase staining) of polypeptide library; assay type: cell-based, human; conditions: 10 μM, 48 hours
Method: Primary fibroblasts isolated from Progeria patients can constitute a genetic model of early aging and cellular senescence in humans. Primary fibroblasts from Progeria patients were cultured in DMEM (Dulbecco's Modified Eagle's Medium) supplemented with 10% v.v. fetal bovine serum (FBS), and 1% v.v. of penicillin/streptomycin solution (1,000 U·mL-1). Cells were kept in a 5% CO2, 37° C. and 95% humidity atmosphere. After expansion, these cells were seeded in 96-well plates (1,000 cells per well) and, 6 hours after plating, were incubated with individual polypeptides from a proprietary library at 50 μM for 48 hours. Negative control comprised untreated cells, which received vehicle only; positive control group comprised cells incubated with 10 μM ABT-263, a senolytic compound for the same period. […] Three independent experiments including three technical replicates were performed.

For `CO[C@H]1C[C@@H]2CC[C@@H](C)[C@@](O)(O2)C(=O)C(=O)N2CCCC[C@H]2C(=O)O[C@H]([C@H](C)C[C@@H]2CC[C@@H](O)[C@H](OC)C2)CC(=O)[C@H](C)/C=C(\C)[C@@H](O)[C@@H](OC)C(=O)[C@H](C)C[C@H](C)/C=C/C=C/C=C/1C` [rapamycin], the “relative expression level of IL-10 (negative control = 1)” value ([1]; single agent, 5 days (Peptide 14 3.12 μM; rapamycin 100 nM; PHA 5 μg/mL)) was “about 2.5” and the “relative expression level of IL-10 (negative control = 1)” value ([1]; with 5 μg/mL PHA, 5 days (Peptide 14 3.12 μM; rapamycin 100 nM)) was “about 0.2”.

WLKGI [WLKGI] was tested, and the “cellular toxicity (relative cell number)” value [2] was “No cellular toxicity”.

With `COc1cc([C@@H]2c3cc4c(cc3[C@@H](O[C@@H]3O[C@@H]5CO[C@@H](C)O[C@H]5[C@H](O)[C@H]3O)[C@H]3COC(=O)[C@H]23)OCO4)cc(OC)c1O` [Etoposide, etoposide] the “ATRX foci nuclear accumulation (average ATRX foci/cell)” value ([3]; 24 hours) was “significant increase” and the “cellular senescence level (SA β-galactosidase)” value ([3]; 24 hours (senescence inducer)) was “significant increase”.

LKGIL [LKGIL] was tested, and the “cellular toxicity (relative cell number)” value [2] was “No cellular toxicity”.

With `O=S(=O)(N[C@@H]1CCC[C@H](N2c3ccccc3Oc3ccccc32)[C@H]1O)c1ccc(OC(F)(F)F)cc1` [DT-061] the “cellular senescence (SA-BGal+ cells)” value (HGPS HDFs) was “SA-BGal+ cell reduction”.

In the case of `CC1=C(/C=C/C(C)=C/C=C/C(C)=C/CO)C(C)(C)CCC1` [Retinol], the “B2M expression, dermis” value [4] is reported as “significantly decreased”, the “HAS2 expression, dermal samples” value [4] is reported as “increase” and the “IL8 level, epidermis” value [4] is reported as “significantly increased”. The “Ki-67 expression, epidermis” value [4] was “significantly increased”, the “P16 mRNA expression, dermis” value [4] was “significant increase” and the “P16 mRNA expression, epidermis” value [4] was “significant increase”. For the same molecule, the “dermal Ki67 expression” value [4] was “significantly induced”, the “dermal collagen 1 expression” value [4] was “significantly induced” and the “keratin 1 expression, epidermis” value [4] was “significantly reduced”. For the same molecule, the “keratin 14 expression, epidermis” value [4] was “significantly reduced”.

With `CC1(C)CCC(c2ccc(Cl)cc2)=C(CN2CCN(c3ccc(C(=O)NS(=O)(=O)c4ccc(N[C@H](CCN5CCOCC5)CSc5ccccc5)c(S(=O)(=O)C(F)(F)F)c4)cc3)CC2)C1` [ABT-263] the “cellular toxicity (cell number)” value [5] was “cellular toxicity” and the “relative cellular senescence (SA B-galactosidase staining)” value ([5]; positive control) was “significant reduction of cellular senescence”.

With `C=C1[C@@H](O)[C@@H]2O[C@]3(CC[C@H](/C=C/[C@@H](C)[C@@H]4CC(C)=C[C@@]5(O[C@H](C[C@@](C)(O)C(=O)O)CC[C@H]5O)O4)O3)CC[C@H]2O[C@@H]1[C@@H](O)C[C@H](C)[C@H]1O[C@@]2(CCCCO2)CC[C@H]1C` [OA, Okadaic acid] the “cellular senescence (SA-BGal+ cells)” value (HGPS HDFs) was “significant increase”, the CDKN1A expression (HGPS HDFs; Okadaic Acid 5-7.5 nM) was “significant increase” and the “CXCL1 (SASP marker) expression” value (HGPS HDFs; Okadaic Acid 5-7.5 nM) was “significant increase”. For the same molecule, the “IL6 (SASP marker) expression” value (HGPS HDFs; Okadaic Acid 5-7.5 nM) was “significant increase”.
